From ChEMBL document CHEMBL1153942, “Design and efficient synthesis of novel ascorbyl conjugated peptide with high collagen biosynthesis stimulating effects” (Bioorg Med Chem Lett, 2009)
Activity calls are given as the source filed them. The rule behind the calls is not given here. Residues, ends and D or L forms follow the SMILES beside them. *: point of attachment. X1 = O=C(CCC(=O)*)OCC(O)C1OC(=O)C(O)=C1O; Palmitoyl = CCCCCCCCCCCCCCCC(=O)*

How the values were obtained:
HDF [1] = assay: Stimulation of collagen biosynthesis in primary cultured neonatal HDF at 1 to 1000 uM after 72 hrs by ELISA in presence of fetal bovine serum; format: functional, cell-based; details: Homo sapiens
HDF [2] = assay: Stimulation of collagen biosynthesis in primary cultured neonatal HDF at 100 uM after 72 hrs by ELISA in presence of fetal bovine serum; format: functional, cell-based; details: Homo sapiens
[3] = Cytotoxicity against HDF at >100 uM; format: cell-based; details: human
[4] = Stability in rat skin homogenates; format: ADME, tissue-based, Zone of skin; details: read-out: Stability
[5] = Stability in rat skin homogenates assessed as compound remain after 6 hrs; format: ADME, tissue-based, Zone of skin; details: read-out: Stability

| Compound | Activity (HDF [1]) | Activity (HDF [2]) | Activity [3] | half-life [4] [h] | remaining at 6 h [5] [%] |
| --- | --- | --- | --- | --- | --- |
| O=C1O[C@H]([C@@H](O)CO)C(O)=C1O | inactive | – | – | – | – |
| CCCCCCCCCCCCCCCC(=O)N[C@@H](CCCCN)C(=O)N[C@H](C(=O)N[C@H](C(=O)N[C@@H](CCCCN)C(=O)N[C@@H](CO)C(=O)O)[C@@H](C)O)[C@@H](C)O (Palmitoyl-KTTKS-OH) | – | Active | Active | – | – |
| C[C@@H](O)[C@H](NC(=O)[C@H](CCCCN)NC(=O)CCC(=O)OCC(O)C1OC(=O)C(O)=C1O)C(=O)N[C@H](C(=O)N[C@@H](CCCCN)C(=O)N[C@@H](CO)C(=O)O)[C@@H](C)O (some centres not stated) (X1-KTTKS-OH) | Active | – | – | > 6 | < 10 |
| H-KTTKS-OH | inactive | – | – | – | – |
